The target of one assay is T1, 5-HT1c receptor (Bos taurus, UniProt A0AAA9SBU1).
T1 sequence (A0AAA9SBU1 33-457): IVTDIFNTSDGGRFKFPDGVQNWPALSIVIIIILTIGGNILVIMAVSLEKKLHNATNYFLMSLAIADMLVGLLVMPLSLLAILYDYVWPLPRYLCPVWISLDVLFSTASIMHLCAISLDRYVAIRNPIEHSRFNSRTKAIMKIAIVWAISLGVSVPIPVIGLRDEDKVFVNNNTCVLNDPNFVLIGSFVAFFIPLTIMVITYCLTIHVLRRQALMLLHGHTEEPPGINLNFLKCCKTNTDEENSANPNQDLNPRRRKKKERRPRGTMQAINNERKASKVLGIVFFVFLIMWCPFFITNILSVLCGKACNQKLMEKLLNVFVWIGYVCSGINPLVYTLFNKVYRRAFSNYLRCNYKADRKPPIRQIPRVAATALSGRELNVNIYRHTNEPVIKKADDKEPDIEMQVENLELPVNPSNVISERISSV
Put plainly: Assay for 5-HT1c affinity, radioligand binding (selectivity against 5-HT2 receptor assay). Also noted: species or system beef. The following applies: low IC50 in the 5-HT1c receptor assay and a higher IC50 in the 5-HT2 receptor assay.

For the next assay, the target named is T2, 5HT2A (Homo sapiens, UniProt P28223).
T2 construct: expressed in transfected cells
T2 sequence (P28223 whole entry): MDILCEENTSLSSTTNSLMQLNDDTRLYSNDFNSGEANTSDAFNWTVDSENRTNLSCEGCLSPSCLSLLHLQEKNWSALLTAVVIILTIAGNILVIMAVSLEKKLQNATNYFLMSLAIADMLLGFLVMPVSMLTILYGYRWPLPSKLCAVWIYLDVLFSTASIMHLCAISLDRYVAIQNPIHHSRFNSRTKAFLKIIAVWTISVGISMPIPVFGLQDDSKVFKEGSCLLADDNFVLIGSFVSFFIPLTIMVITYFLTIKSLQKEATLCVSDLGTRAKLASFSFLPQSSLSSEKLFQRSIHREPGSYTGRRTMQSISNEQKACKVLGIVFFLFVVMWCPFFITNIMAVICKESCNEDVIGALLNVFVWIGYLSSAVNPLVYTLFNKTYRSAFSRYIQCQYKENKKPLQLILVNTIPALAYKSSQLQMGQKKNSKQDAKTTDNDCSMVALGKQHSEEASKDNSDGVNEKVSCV
Put plainly: Cell assay using human cells, 5HT2A. It is filed as binding. The following applies: Table I. As for the experimental part:
(§1) The Kd and Bmax values from the saturation assays were determined for best fit to a one-site or a two-site binding model using a partial F-test. De Lean, A., A. A. Hancock, and R. J. Lefkowitz, Mol. Pharmacol. 21:5-16 (1981). The following equation was used for a one-site binding model, [formula] where Bound=amount of [^3 H]5-HT specifically bound, Bmax =maximum number of binding sites, Kd =equilibrium dissociation constant and [L]=free concentration of [^3 H]5-HT, or a two-site binding model, [formula] where Bound=amount of [^3 H]5-HT specifically bound, Bmax1 =maximum number of high affinity binding sites, Bmax2 =maximum number of low affinity binding sites, Kd1 =equilibrium dissociation constant for the high affinity site, Kd2 =equilibrium dissociation constant for the low affinity site and [L]=free concentration of [^3 H]5-HT. The IC50 values from the competition assays, the binding parameters for the IP3 standard curve and the EC50 and Emax values from the IP3 assays were determined by nonlinear regression analysis of four parameter logistic equations (Systat, Systat Inc, Evanston, Ill.). De Lean, A., A. A. Hancock, and R. J. Lefkowitz, Mol. Pharmacol., 21:5-16 (1981). The IC50 values were converted to Ki values using the Cheng-Prusoff equation. Cheng, Y., and W. H. Prusoff, Biochem. Pharmacol., 22:3099-3108 (1973).
(§2) The following Cell assays use Human Cells

The next assay concerns the target T3, 5HT2B (Homo sapiens, UniProt P41595).
T3 construct: expressed in transfected cells
Put plainly: Cell assay using human cells, 5HT2B (radioligand binding). The following applies: Table I.

The next assay has as its target T4, 5HT2C (Homo sapiens, UniProt P28335).
T4 construct: expressed in transfected cells
T4 sequence (P28335 33-458): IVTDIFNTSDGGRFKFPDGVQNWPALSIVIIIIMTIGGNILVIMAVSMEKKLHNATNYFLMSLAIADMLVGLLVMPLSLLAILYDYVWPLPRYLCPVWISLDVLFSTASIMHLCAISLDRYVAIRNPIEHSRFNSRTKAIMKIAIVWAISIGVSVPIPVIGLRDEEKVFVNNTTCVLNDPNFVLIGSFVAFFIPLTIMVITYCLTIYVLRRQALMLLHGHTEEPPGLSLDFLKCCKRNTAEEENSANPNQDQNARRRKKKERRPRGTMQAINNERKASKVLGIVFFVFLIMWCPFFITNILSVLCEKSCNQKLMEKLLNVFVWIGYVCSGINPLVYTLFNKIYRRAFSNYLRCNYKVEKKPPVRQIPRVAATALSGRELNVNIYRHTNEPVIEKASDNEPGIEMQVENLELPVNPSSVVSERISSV
Put plainly: Cell assay using human cells, 5HT2C. It is filed as binding. The following applies: Table I. On the procedure: as §1, §2

5-HT1c selective and Ki data for 17 molecules are collected here from patent US5861410A, “Tetrahydro-beta-carbolines” (Eli Lilly and Company, priority 1997, dated 1999).

Structures can show the parent of a compound that is named as a salt.

T3 sequence (P41595 whole entry): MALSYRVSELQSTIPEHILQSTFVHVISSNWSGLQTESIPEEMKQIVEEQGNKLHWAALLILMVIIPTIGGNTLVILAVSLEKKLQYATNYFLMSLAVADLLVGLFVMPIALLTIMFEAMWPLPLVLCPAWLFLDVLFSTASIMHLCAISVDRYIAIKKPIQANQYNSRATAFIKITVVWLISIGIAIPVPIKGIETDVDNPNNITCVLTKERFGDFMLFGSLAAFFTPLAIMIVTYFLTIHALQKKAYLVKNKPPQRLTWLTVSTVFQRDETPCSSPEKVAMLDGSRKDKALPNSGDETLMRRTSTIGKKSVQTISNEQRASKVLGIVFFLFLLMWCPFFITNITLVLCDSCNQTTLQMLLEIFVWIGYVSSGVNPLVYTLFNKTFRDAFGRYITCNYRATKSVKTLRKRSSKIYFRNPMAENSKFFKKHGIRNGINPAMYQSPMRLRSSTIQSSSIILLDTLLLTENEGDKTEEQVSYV
Procedure for 5-HT1c receptor: Beef brain was removed immediately after slaughter, and choroid plexus were dissected over ice. […] The brain of each was immediately removed and the cerebral cortex was dissected over ice. Tissues were homogenized in 9 volumes of 0.32 mol/L sucrose and centrifuged at 1,000×g for 10 minutes. The supernatant was centrifuged at 17,000 x g for 20 minutes. The pellet was suspended in 100 volumes of 50 mM Tris-HCl (pH7.4), incubated at 37° C. for 10 minutes and centrifuged at 50,000×g for 10 minutes, and the process was repeated three times. The final pellets were frozen at -70° C. and used within 2 weeks. Pellets were rehydrated with physiological buffer prior to use.
For 5-HT1c receptor assays increasing concentrations of experimental compound, 50 mM Tris HCl buffer pH 7.4 , and tritiated mesulergine (2.0 nM) (^3 H ligand) were combined in polystyrene tubes at room temperature. The reaction was initiated by the addition of the resuspended choroid plexus tissue which had been preincubated at 37° C. for 20 minutes. The reaction mixture was incubated in a 37° C. water bath for 15 minutes.
The reactions were terminated by rapid filtration, (Brandel Cell Harvestor), through Whatman GF/B glass filters that had been presoaked in Tris buffer pH 7.4. The filters were then washed 2 times with 5 ml of ice cold Tris buffer pH 7.4. Washed filters were placed in scintillation vials and 10 ml RedySolv, (Brandel), was added and samples were counted in a Searle D-300 beta counter. Means and standard error statistics were calculated for triplicate experimental determinations in certain cases. Mean values were obtained from three or more separate determinations. The incubation time for the reaction mixture was 15 minutes at 37° C.

As for `Cc1ccc2[nH]cc([C@@H]3CCCC[C@H]3N)c2c1.Cl` (relative stereo) [Example 3, Trans-3-(2-amino-cyclohexyl)-5-methylindole, hydrochloride], the 5-HT1c selective entry on 5-HT1c receptor is “particularly 5-HT1c selective”.

With `Cl.N[C@@H]1CCCC[C@H]1c1c[nH]c2c(Cl)cccc12` (relative stereo) [Example 4, Trans-3-(2-amino-cyclohexyl)-7-chloroindole, hydrochloride], at 5-HT1c receptor, the 5-HT1c selective result was “particularly 5-HT1c selective”.

Regarding `Cc1ccc2[nH]c3c(c2c1)[C@@H]1CCCC[C@H]1NC3` (relative stereo) [Example 6, Trans-10-methyl-2,3,4,4a,5,6,7,11c-octahydro-1H-indolo[2,3-c] quinoline, hydrochloride], the 5-HT1c selective entry on 5-HT1c receptor is “particularly 5-HT1c selective”.

`Clc1cccc2c3c([nH]c12)CN[C@@H]1CCCC[C@@H]31` (relative stereo) [Example 7, Trans-8-chloro-2,3,4,4a,5,6,7,11c-octahydro-1 H-indolo[2,3-c]quinoline, hydrochloride]: the Ki was 278 nM on 5HT2A, 668 nM at 5HT2B and 977 nM at 5HT2C. Also, the 5-HT1c selective entry on 5-HT1c receptor is given as “particularly 5-HT1c selective”.

Regarding `COc1ccc(CC2N[C@@H]3CCC[C@H]3c3c2[nH]c2ccc(C)cc32)cc1OC` (relative stereo) [Example 8, Trans-5-(3,4-dimethoxybenzyl)-9-methyl-1,2,3,4,4a,5,6,10c-octahydrocyclopenta[a]pyrido [3,4-b]indole, hydrochloride], the Ki came out at 124 nM on 5HT2A, 9.56 nM at 5HT2B and 221 nM at 5HT2C.

For `COc1ccc(CC2N[C@@H]3CCC[C@H]3c3c2[nH]c2c(Cl)cccc32)cc1OC` (relative stereo) [Example 9, Trans-7-chloro-5-(3,4-dimethoxybenzyl)-1,2,3,4,4a,5,6,10c-octahydrocyclopenta[a]pyrido [3,4-b]indole, hydrochloride], the Ki on 5HT2A amounted to 53.6 nM; at 5HT2B it was 52.5 nM; at 5HT2C it was 203 nM.

As for `COc1ccc(CC2N[C@@H]3CCC[C@H]3c3c2[nH]c2c(C)cc(C)cc32)cc1OC` (relative stereo) [Example 10, Trans-5-(3,4-dimethoxybenzyl)-7,9-dimethyl-1,2,3,4,4a,5,6,10c-octahydrocyclopenta[a]pyrido [3,4-b]indole, hydrochloride], the values for the Ki at 5HT2A, on 5HT2B and at 5HT2C were 556 nM, 106 nM and 1120 nM, respectively. Further, at 5-HT1c receptor, the 5-HT1c selective entry is “particularly 5-HT1c selective”.

Consider `COc1ccc(CC2N[C@@H]3CCCC[C@H]3c3c2[nH]c2ccc(C)cc32)cc1OC` (relative stereo) [Example 11, Trans-6-(3,4-dimethoxybenzyl)-10-methyl-2,3,4,4a,5,6,7,11c-octahydro-1H-indolo[2,3-c]quinoline, hydrochloride], for which the Ki on 5HT2A came to 293 nM; at 5HT2B, 16.4 nM; on 5HT2C, 352 nM.

Regarding `COc1ccc(CC2N[C@@H]3CCCC[C@H]3c3c2[nH]c2c(Cl)cccc32)cc1OC` (relative stereo) [Example 12, Trans-8-chloro-6-(3,4-dimethoxybenzyl)-2,3,4,4a,5,6,7,11c-octahydro-1H-indolo[2,3-c]quinoline, hydrochloride], the Ki on 5HT2A came out at 172 nM; on 5HT2B it was 121 nM; on 5HT2C it was 783 nM.

Turning to `COc1ccc(CC2N[C@@H]3CCCC[C@H]3c3c2[nH]c2c(C)cc(C)cc32)cc1OC` (relative stereo) [Example 13, Trans-6-(3,4-dimethoxybenzyl)-8,10-dimethyl-2,3,4,4a,5,6,7,11c-octahydro-1H-indolo[2,3-c]quinoline, hydrochloride], the Ki at 5HT2A turned out to be 917 nM; at 5HT2B, 168 nM; at 5HT2C, 2170 nM. Also, the 5-HT1c selective entry on 5-HT1c receptor is “particularly 5-HT1c selective”.

Consider `COc1ccc(CC2N[C@@H]3CCCCC[C@H]3c3c2[nH]c2ccc(C)cc32)cc1OC` (relative stereo) [Example 14, Trans-7-(3,4-dimethoxybenzyl)-11-methyl-1,2,3,4,5,5a,6,7,8,12a-decahydrocyclohepta[a]pyrido[3,4-b]indole, hydrochloride], for which the Ki at 5HT2A worked out at 1450 nM; on 5HT2B, 3520 nM; on 5HT2C, 9250 nM.

Consider `Cc1ccc2[nH]c3c(c2c1)[C@@H]1CCC[C@H]1NC3Cc1cccc2ccccc12` (relative stereo) [Example 15, Trans-9-methyl-5-(1-naphthylmethyl)-1,2,3,4,4a,5,6,10c-octahydrocyclopenta[a]pyrido [3,4]-blindole, hydrochloride], for which the Ki was found to be 33 nM on 5HT2A and 52.1 nM on 5HT2C.

As to `Cc1ccc2[nH]c3c(c2c1)[C@@H]1CCCC[C@H]1NC3Cc1cccc2ccccc12` (relative stereo) [Example 16, Trans-10-methyl-6-(1-naphthylmethyl)-2,3,4,4a,5,6,7,11c-octahydro-1H-indolo[2,3-c]quinoline, hydrochloride], the 5-HT1c selective result at 5-HT1c receptor is on record as “particularly 5-HT1c selective”.

As for `Cc1cc(C)c2[nH]c3c(c2c1)[C@@H]1CCCC[C@H]1NC3Cc1cccc2ccccc12` (relative stereo) [Example 17, Trans-8,10-dimethyl-6-(1-naphthylmethyl)-2,3,4,4a,5,6,7,11c-octahydro-1H-indolo[2,3-c]quinoline, hydrochloride], the results for the Ki on 5HT2A, at 5HT2B and at 5HT2C were 264 nM, 367 nM and 1110 nM, respectively.

With `COc1cc2c(cc1OC)CC1(CC2)N[C@H]2CCCC[C@@H]2c2c1[nH]c1ccc(C)cc21` (relative stereo) [Example 18, Trans-spiro-6,6-[2-(3,4-dimethoxy)-1,2,3,4-tetrahydronaphthyl]-10-methyl-2,3,4,4a,5,6,7,11a-octahydro-1 H-indolo[2,3-c]quinidine, hydrochloride], the Ki at 5HT2A (hydrochloride) is 363 nM; on 5HT2B (hydrochloride) it was 178 nM; on 5HT2C (hydrochloride) it was 325 nM.

On to `COc1cc2c(cc1OC)CC1(CC2)N[C@H]2CCCC[C@@H]2c2c1[nH]c1ccc(C)cc21` (single isomer, unassigned; isomer 18) [Isomer 18(1), Trans-spiro-6,6-[2-(3,4-dimethoxy)-1,2,3,4-tetrahydronaphthyl]-10-methyl-2,3,4,4a,5,6,7,11a-octahydro-1 H-indolo[2,3-c]quinidine, hydrochloride], for which the Ki at 5HT2A (hydrochloride) was 153 nM; on 5HT2B (hydrochloride), 143 nM; on 5HT2C (hydrochloride) it was 138 nM.

As to `COc1cc2c(cc1OC)CC1(CC2)N[C@H]2CCCC[C@@H]2c2c1[nH]c1ccc(C)cc21` (single isomer, unassigned; isomer 18) [Isomer 18(2), Trans-spiro-6,6-[2-(3,4-dimethoxy)-1,2,3,4-tetrahydronaphthyl]-10-methyl-2,3,4,4a,5,6,7,11a-octahydro-1 H-indolo[2,3-c]quinidine, hydrochloride], the figures for the Ki at 5HT2A (hydrochloride), at 5HT2B (hydrochloride) and on 5HT2C (hydrochloride) were 1970 nM, 2890 nM and 6210 nM, respectively.
